What was measured:
[1] = Thermogravimetric analysis (TGA) of mass loss on heating; assay type: physicochemical; details: 30° C. to 600° C. at 5° C./min; for Tpeak of mass loss (° C.) Air (rep 1) / Tpeak of mass loss (° C.) Air (rep 2): TGA in air; for Tpeak of mass loss (° C.) Nitrogen (rep 1) / Tpeak of mass loss (° C.) Nitrogen (rep 2): TGA in nitrogen
Procedure: Prior to panel testing, the cooling agents were subjected to thermogravimetric analysis (TGA) to understand their behavior as they are heated. As is known in the art, TGA is an analytical method which can monitor the mass loss of a sample as it is heated to temperatures of up to 1000° C. and higher.
All measurements were carried out on a Perkin Elmer STA6000 TGA thermogravimetric analyzer. For solid samples, a spatula was used to transfer 5-20 mg of material into the crucible of the analyzer. Oils were introduced to the instrument by transferring 5-20 mg using a Pasteur pipette onto a small portion of Cambridge filter pad which was placed in the crucible. All samples were heated from 30° C. to 600° C. at a constant rate of 5° C./min. This was carried out for each compound twice in air and twice in nitrogen. For a small number of samples, the run was stopped at 500-600° C. when full mass loss had been observed. For comparative purposes, menthol was also analyzed.
The onset temperature of mass loss for each compound was determined by visual inspection of the TGA traces on the computer software and the results are summarized in Table 2.

volunteers [2] = assay: Example 1 observational testing: perceived cooling intensity, Vype eTank Pro e-cigarette; assay type: in vivo; details: 10 volunteers
Procedure: 10 volunteers were asked to use each cooling agent sample in a Vype eTank Pro (an electronic cigarette device). All cooling agents were used at a concentration of 0.18% except for menthol which in one sample was used at the current commercial concentration of 1.235%. Each of the menthol samples were tested for comparative purposes.
(§1) Each volunteer was asked to assess the cooling intensity on an objective basis (i.e. not considering personal preference) and a subjective basis. The objective assessment required the volunteer to rate the overall perceived cooling intensity from 0 to 10, where 0 was no cooling perceivable and 10 was very strong cooling sensation, and to place the cooling sensation, e.g. in the mouth, throat etc. The subjective assessment required the cooling intensity to be ranked as (1) much too low, (2) slightly too low, (3) just right, (4) slightly too high or (5) much too high.

[3] = from the literature, cited from earlier work; for Boiling point (° C.) @ 760 mmHg unless stated: @ 760 mmHg (atmospheric pressure), approximate
[4] = cited from earlier work; for Vapor pressure (mmHg) @ 25° C.: approximate, from the literature
volunteers [5] = assay: Example 2: cooling intensity of WS-3 e-liquid samples, eTank Pro e-cigarette; assay type: in vivo; details: minimum of 4 volunteers, scale 0-10
Excerpt: A minimum of 4 volunteers were asked to test each of the following e-liquid samples in an eTank Pro (an electronic cigarette device): • WS-3 at 2.5 wt % in glycerol/propylene glycol; • WS-3 at 5 wt % in glycerol/propylene glycol; and • WS-3 at 10 wt % in glycerol/propylene glycol.
as §1, with “basis in the same manner as Example 1.” for “basis.”

[6] = 0.18% in e-liquid, 0 = no cooling perceivable, 10 = very strong cooling sensation

| SMILES | Tpeak of mass loss (° C.) Air (rep 1) [1] [°C] | Tpeak of mass loss (° C.) Air (rep 2) [1] [°C] | Tpeak of mass loss (° C.) Nitrogen (rep 1) [1] [°C] | Tpeak of mass loss (° C.) Nitrogen (rep 2) [1] [°C] | Average Cooling Intensity (0-10) (volunteers [2]; [6]) | Boiling point (° C.) @ 760 mmHg unless stated [3] | Vapor pressure (mmHg) @ 25° C. [4] [mmHg] | Boiling point (° C.) ([3]; @ 2.00 mmHg) | Average Cooling Intensity (0-10) (volunteers [2]; 1.235% (current commercial concentration) in e-liquid, scale 0-10) | Vapor pressure ([4]; 25° C.) | Average Cooling Intensity (0-10) (volunteers [5]; 2.5 wt % in glycerol/propylene glycol) | Average Cooling Intensity (0-10) (volunteers [5]; 5 wt % in glycerol/propylene glycol) | Average Cooling Intensity (0-10) (volunteers [5]; 10 wt % in glycerol/propylene glycol) |
| --- | --- | --- | --- | --- | --- | --- | --- | --- | --- | --- | --- | --- | --- |
| CC(C)[C@@H]1CC[C@@H](C)CC12OCC(CO)O2 (single isomer, unassigned; (-)) [Frescolat ® MGA, (−)-menthone 1,2-glycerol ketal] | 93 | 85 | 102 | 94 | 1 | 138-142 °C | 2.15E−5 |  |  |  |  |  |  |
| CC(C)[C@@H]1CC[C@@H](C)C[C@H]1OCC(O)CO (stereo partly drawn) [Coolact ® 10, 3-((−)-menthoxy)propane-1,2-diol] | 119 | 112 | 115 | 119 | 0.75 | 362.8 ± 22.0 °C | 9.88E−7 |  |  |  |  |  |  |
| COc1ccc(NC(=O)[C@@H]2C[C@H](C)CC[C@H]2C(C)C)cc1 [WS-12] | 202 | 203 | 199 | 197 |  | 447.8 ± 28.0 °C | 3.25E−8 |  |  |  |  |  |  |
| CC(C)[C@@H]1CC[C@@H](C)C[C@H]1C(=O)NCCc1ccccn1 [Evercool ® 190, (1R,2S,5R)-N-(2-(pyridin-2-yl)ethyl)menthylcarboxamide] | 161 | 164 | 169 | 174 | 7.1 | 461.6 ± 24.0 °C | 1.06E−8 |  |  |  |  |  |  |
| CCOC(=O)CNC(=O)[C@@H]1C[C@H](C)CC[C@H]1C(C)C [WS-5, ethyl-2-[[(1R,2S,5R)-5-methyl-2-propan-2-ylcyclohexanecarbonyl]amino] acetate] | 149 | 151 | 154 | 158 | 2.5454 |  |  | 151.00 (@ 2.00 mmHg) ° C. |  |  |  |  |  |
| CC(O)C(=O)O[C@@H]1C[C@H](C)CC[C@H]1C(C)C (stereo partly drawn) [Frescolat ® ML, (−)-menthyl lactate] | 86 | 88 | 86 | 91 | 2 | 304.0 ± 15.0 °C | 8.58E−5 |  |  |  |  |  |  |
| CC1CCC(C(C)C)C(O)C1 (stereo not shown) [Menthol, menthol, reference compound] | 53 | 55 | 52 | 55 | 2.1 | 212 °C |  |  | 8 | approximately 1.02 Pa |  |  |  |
| CC(C)[C@@H]1CC[C@@H](C)C[C@H]1OC(=O)CCC(=O)O [Monomenthyl succinate, (−)-menthyl succinate] | 144 | 148 | 151 | 151 |  | 374.35 °C | 1.23E−6 |  |  |  |  |  |  |
| CCNC(=O)[C@H]1C[C@@H](C)CC[C@@H]1C(C)C (stereo in doubt) [WS-3, (1S,2R,5S)-N-ethyl-5-methyl-2-(propan-2-yl)cyclohexanecarboxamide] | 127 | 132 | 132 | 128 | 3.045 | 340.55 °C | 8.50E−5 |  |  |  | 6 | 8.5 | 9.8 |
| CNC(=O)C(C)(C(C)C)C(C)C [WS-23, N,2,3-trimethyl-2-propan-2-ylbutanamide] | 88 | 88 | 90 | 86 | 2.1818 | 233.00-234.00 °C |  |  |  |  |  |  |  |

Reference: patent publication US20210368850A1, “VAPORIZABLE FORMULATION” (NICOVENTURES TRADING LIMITED, priority 2018, published 2021)
